Measured values: ChEMBL document CHEMBL1130761, “Synthesis of 2,3,4a,11b-tetrahydro-oxazino[2,3-c]benzopyran-9-carbonitriles as ATP-sensitive potassium channel openers” (Bioorg Med Chem Lett, 1998)

Key:
Format in all cases: functional
Rattus norvegicus [1] = species: Rattus norvegicus; assay: Mechanoinhibitory activity in presence of Glibenclamide (1 uM) was evaluated in KCl stimulated rat detrusor strip
Rattus norvegicus [2] = species: Rattus norvegicus; assay: Mechanoinhibitory activity was evaluated by spontaneous contraction of rat portal vein; + indicates enhancement in spontaneous contraction was observed
Rattus norvegicus [3] = species: Rattus norvegicus; assay: Mechanoinhibitory activity was evaluated in KCl stimulated rat detrusor strip
Rattus norvegicus [4] = species: Rattus norvegicus; assay: Mechanoinhibitory activity was evaluated by spontaneous contraction of rat portal vein.
[5] = Mechanoinhibitory activity was evaluated by the ratio of IC50(portal vein)/IC50(bladder)
Rattus norvegicus [6] = species: Rattus norvegicus; assay: Mechanoinhibitory activity in presence of Glibenclamide (1 uM) was evaluated by spontaneous contraction of rat portal vein.
Rattus norvegicus [7] = species: Rattus norvegicus; assay: Mechanoinhibitory activity (bladder-selective potassium channel opening activity) was evaluated in KCl stimulated rat detrusor strip

Structure (SMILES) | IC50 (Rattus norvegicus [1]) | Effect on spontaneous contraction (Rattus norvegicus [2]) | IC50 (Rattus norvegicus [3]) | IC50 (Rattus norvegicus [4]) | Ratio [5] | IC50 (Rattus norvegicus [6]) | IC50 (Rattus norvegicus [7])
CC1(C)Oc2ccc(C#N)cc2[C@@H]2[C@@H]1OCCN2C=O | 158 µM | enhancement in spontaneous contraction | 152 µM |  |  |  | 
CC1(C)Oc2ccc(C#N)cc2[C@@H]2[C@H]1OCCN2C=O | 279 µM |  | 51.8 µM | 62.8 µM | 1.21 | 117 µM | 
CC1(C)Oc2ccc(C#N)cc2[C@H]2NC(=O)CO[C@@H]21 | 56.3 µM | enhancement in spontaneous contraction | 53.1 µM |  |  |  | 
CN1C(=O)CO[C@H]2[C@@H]1c1cc(C#N)ccc1OC2(C)C | 129 µM |  | 65.7 µM | 26.2 µM | 0.4 | 28.3 µM | 
CCC(=O)N1CCO[C@H]2[C@H]1c1cc(C#N)ccc1OC2(C)C | 318 µM |  | 47.2 µM | 64.9 µM | 1.38 | 92.6 µM | 
CC1(C)Oc2ccc(C#N)cc2[C@@H]2[C@H]1OCCN2C(=O)c1ccccc1 | 32.8 µM |  |  | 34.5 µM | 4.23 | 45.5 µM | 8.15 µM
CC(C)C(=O)N1CCO[C@H]2[C@H]1c1cc(C#N)ccc1OC2(C)C | 244 µM |  | 104 µM | 127 µM | 1.22 |  | 
CC1(C)Oc2ccc(C#N)cc2[C@@H]2[C@@H]1OCCN2C(=O)c1ccccc1 | 123 µM | enhancement in spontaneous contraction | 66 µM |  |  |  | 
CN1C(=O)CO[C@H]2[C@H]1c1cc(C#N)ccc1OC2(C)C | 79.5 µM |  | 43.8 µM | 50.2 µM | 1.15 | 72.8 µM | 
CC1(C)Oc2ccc(C#N)cc2[C@@H](N2CCCC2=O)[C@@H]1O [LEVCROMAKALIM] | 8.7 µM |  | 0.82 µM | 0.13 µM | 0.16 | 4.9 µM | 
CC(=O)N1CCO[C@H]2[C@H]1c1cc(C#N)ccc1OC2(C)C | 153 µM |  | 70.1 µM | 5.9 µM | 0.08 | 79.3 µM | 
CCC(=O)N1CCO[C@@H]2[C@H]1c1cc(C#N)ccc1OC2(C)C | 141 µM |  | 51.8 µM | 20.1 µM | 0.39 | 52.6 µM | 
CC(C)C(=O)N1CCO[C@@H]2[C@H]1c1cc(C#N)ccc1OC2(C)C | 268 µM |  | 56.4 µM | 18.4 µM | 0.33 | 58.9 µM | 
CC(=O)N1CCO[C@@H]2[C@H]1c1cc(C#N)ccc1OC2(C)C | 53.2 µM |  | 8.8 µM | 2.7 µM | 0.31 | 60.9 µM | 
CC1(C)Oc2ccc(C#N)cc2[C@@H]2[C@@H]1OCC(=O)N2Cc1ccccc1 | 130 µM | enhancement in spontaneous contraction | 68.2 µM |  |  |  | 
